Where “and” joins values, the source holds several entries; their conditions need not be identical. Equal values may be shown once. Entries after “also recorded” stand apart in the source; their conditions may differ.
Assay: Mouse pharmacokinetic (PK) study, parent compound and psilocin metabolite in plasma
Type: in vivo, C57Bl/6 mice
Excerpt: Briefly, the procedure was as follows. […] 19, 2022.

[1] = administered compound itself in plasma, 1 mg/kg i.v., individual animals, 1 mg/kg

CN(C)CCc1c[nH]c2cccc(OC(=O)c3cccc4c3OCCO4)c12 [C(XX)]
Plasma concentration of C(XX) (1 mg/kg i.v. C(XX), 5 min, individual animals): 152 ng/mL and 105 ng/mL | Plasma concentration of C(XX) (1 mg/kg i.v. C(XX), 0.25 h, individual animals): 84.7 ng/mL and 60.3 ng/mL | Plasma concentration of C(XX) (1 mg/kg i.v. C(XX), 0.5 h, individual animals): 37.9 ng/mL and 32.1 ng/mL | Plasma concentration of C(XX) (1 mg/kg i.v. C(XX), 1 h, individual animals): 8.13 ng/mL and 8.22 ng/mL | Plasma concentration of C(XX) (1 mg/kg i.v. C(XX), 2 h, individual animals): 1.03 ng/mL and 1.14 ng/mL | Plasma concentration of C(XX) (1 mg/kg i.v. C(XX), 4 h, individual animals): 0.137 ng/mL and 0.148 ng/mL | Plasma concentration of C(XX) (1 mg/kg i.v. C(XX), 6 h, individual animals): BLQ (BLQ denotes below the lower limit of quantitation (0.25 ng/mL).) | Plasma concentration of psilocin (1 mg/kg i.v. C(XX), 8 h, animals M49-M51): BLQ (BLQ denotes below the lower limit of quantitation (0.5 ng/mL).) | Plasma concentration of C(XX) (1 mg/kg i.v. C(XX), 8 h, individual animals): BLQ (BLQ denotes below the lower limit of quantitation (0.25 ng/mL).) and No (2×) | Plasma concentration of C(XX) (1 mg/kg oral C(XX), 0.25 h, individual animals): 0.459 ng/mL and 0.648 ng/mL | Plasma concentration of C(XX) (1 mg/kg oral C(XX), 0.5 h, individual animals): 0.509 ng/mL and 0.648 ng/mL | Plasma concentration of C(XX) (1 mg/kg oral C(XX), 1 h, individual animals): 0.286 ng/mL and 0.199 ng/mL | Plasma concentration of C(XX) (1 mg/kg oral C(XX), 2 h, individual animals): BLQ (BLQ denotes below the lower limit of quantitation (0.25 ng/mL).) | Plasma concentration of C(XX) (1 mg/kg oral C(XX), 4 h, individual animals): BLQ (BLQ denotes below the lower limit of quantitation (0.25 ng/mL).) | Plasma concentration of C(XX) (1 mg/kg oral C(XX), 6 h, individual animals): No Peak; also recorded: BLQ (BLQ denotes below the lower limit of quantitation (0.25 ng/mL).) | Plasma concentration of C(XX) (1 mg/kg oral C(XX), 8 h, individual animals): No Peak; also recorded: BLQ (BLQ denotes below the lower limit of quantitation (0.25 ng/mL).) | Plasma concentration of psilocin (1 mg/kg oral C(XX), 24 h, animals M52-M54): BLQ (BLQ denotes below the lower limit of quantitation (0.5 ng/mL).) | Plasma concentration of C(XX) (1 mg/kg oral C(XX), 24 h, individual animals): No Peak | Plasma concentration of C(XX) (3 mg/kg oral C(XX), 0.25 h, individual animals): 1.72 ng/mL and 1.93 ng/mL | Plasma concentration of C(XX) (3 mg/kg oral C(XX), 0.5 h, individual animals): 1.13 ng/mL and 1.43 ng/mL | Plasma concentration of C(XX) (3 mg/kg oral C(XX), 1 h, individual animals): 0.752 ng/mL and 0.535 ng/mL | Plasma concentration of C(XX) (3 mg/kg oral C(XX), 2 h, individual animals): 0.244 ng/mL and 0.156 ng/mL | Plasma concentration of C(XX) (3 mg/kg oral C(XX), 4 h, individual animals): No Peak; also recorded: BLQ (BLQ denotes below the lower limit of quantitation (0.25 ng/mL).) | Plasma concentration of C(XX) (3 mg/kg oral C(XX), 6 h, individual animals): No Peak; also recorded: BLQ (BLQ denotes below the lower limit of quantitation (0.25 ng/mL).) | Plasma concentration of C(XX) (3 mg/kg oral C(XX), 8 h, individual animals): No Peak; also recorded: BLQ (BLQ denotes below the lower limit of quantitation (0.25 ng/mL).) | Plasma concentration of psilocin (3 mg/kg oral C(XX), 24 h, animals M55-M57): BLQ (BLQ denotes below the lower limit of quantitation (0.5 ng/mL).) | Plasma concentration of C(XX) (3 mg/kg oral C(XX), 24 h, individual animals): No Peak | F(%) (3 mg/kg oral, no footnote on basis (Table 36B), individual animals): 1.08% and 0.962% | Plasma concentration of C(XX) (10 mg/kg oral C(XX), 0.25 h, individual animals): 2.99 ng/mL and 9.12 ng/mL and 10.3 ng/mL | Plasma concentration of C(XX) (10 mg/kg oral C(XX), 0.5 h, individual animals): 2.79 ng/mL and 3.87 ng/mL and 5.79 ng/mL | Plasma concentration of C(XX) (10 mg/kg oral C(XX), 1 h, individual animals): 1.69 ng/mL and 2.74 ng/mL | Plasma concentration of C(XX) (10 mg/kg oral C(XX), 2 h, individual animals): 0.707 ng/mL and 0.533 ng/mL and 1.08 ng/mL | Plasma concentration of C(XX) (10 mg/kg oral C(XX), 4 h, individual animals): BLQ (BLQ denotes below the lower limit of quantitation (0.25 ng/mL).) and 0.302 ng/mL | Plasma concentration of C(XX) (10 mg/kg oral C(XX), 6 h, individual animals): 0.524 ng/mL and BLQ (BLQ denotes below the lower limit of quantitation (0.25 ng/mL).) and 0.196 ng/mL | Plasma concentration of C(XX) (10 mg/kg oral C(XX), 8 h, individual animals): BLQ (BLQ denotes below the lower limit of quantitation (0.25 ng/mL).) and 0.185 ng/mL | Plasma concentration of psilocin (10 mg/kg oral C(XX), 24 h, animals M58-M60): BLQ (BLQ denotes below the lower limit of quantitation (0.5 ng/mL).) | Plasma concentration of C(XX) (10 mg/kg oral C(XX), 24 h, individual animals): No Peak | AUC0-inf [1]: 62.5 ng·h/mL and 48.1 ng·h/mL | AUC0-inf/Dose [1]: 48.3 kg·ng·h/mL/mg and 62.5 kg·ng·h/mL/mg and 48.1 kg·ng·h/mL/mg | AUC0-tlast [1]: 62.4 ng·h/mL and 48.0 ng·h/mL | AUC0-tlast/Dose [1]: 48.1 kg·ng·h/mL/mg and 62.4 kg·ng·h/mL/mg and 48.0 kg·ng·h/mL/mg | Apparent t1/2 [1]: 31.7 min and 32.2 min | C0 [1]: 204 ng/mL and 139 ng/mL | CL [1]: 266.52 mL/min/kg and 346.28 mL/min/kg | MRT0-inf [1]: 22 min and 25.7 min | Vss [1]: 5.874 L/kg and 8.913 L/kg

Reference: patent publication US12065404B2, “C4-carboxylic acid-substituted tryptamine derivatives and methods of using” (priority 2022, dated 2024)
